27 compounds from patent US20090036448A1, “PYRIMIDINE DERIVATIVES AND METHODS OF TREATMENT RELATED TO THE USE THEREOF” (TAISHO PHARMECUTICAL CO., LTD., priority 2004, published 2009) can be followed below.

Structures can show the parent of a compound that is named as a salt.

T1 sequence (Q99705 whole entry): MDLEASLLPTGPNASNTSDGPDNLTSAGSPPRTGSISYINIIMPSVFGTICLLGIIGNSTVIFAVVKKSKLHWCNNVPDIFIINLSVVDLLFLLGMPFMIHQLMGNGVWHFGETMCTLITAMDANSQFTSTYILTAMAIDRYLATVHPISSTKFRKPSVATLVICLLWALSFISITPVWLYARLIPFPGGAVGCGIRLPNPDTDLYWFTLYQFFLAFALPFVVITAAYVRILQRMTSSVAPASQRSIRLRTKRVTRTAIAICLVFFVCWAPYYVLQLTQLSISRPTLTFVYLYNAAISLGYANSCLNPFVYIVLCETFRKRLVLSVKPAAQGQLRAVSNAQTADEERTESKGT

The target of one assay is T1, MCH receptor (Homo sapiens, UniProt Q99705). The assay can be described thus: FLIPR/FDSS6000 functional assay: intracellular Ca2+ changes evoked by MCH. The class given is cell-based. The conditions noted are these: class by percent of control at 10^−7 M or by IC50; antagonist activity, 50 nM of MCH; read-out: class. The text has this:
Subsequently, a functional based assay was used to confirm the lead hits, referred to as FLIPR™ (the Fluorometric Imaging Plate Reader) and FDSS6000™ (Functional Drug Screening System). This assay utilized a non-endogenous, constitutively active version of the MCH receptor.
The FLIPR and FDSS assays are able to detect intracellular Ca^2+ concentration in cells, which can be utilized to assess receptor activation and determine whether a candidate compound is an, for example, antagonist, inverse agonist or agonist to a Gq-coupled receptor. The concentration of free Ca^2+ in the cytosol of any cell is extremely low, whereas its concentration in the extracellular fluid and endoplasmic reticulum (ER) is very high. Thus, there is a large gradient tending to drive Ca^2+ into the cytosol across both the plasma membrane and ER. The FLIPR™ and FDSS6000™ systems (Molecular Devices Corporation, HAMAMATSU Photonics K.K.) are designed to perform functional cell-based assays, such as the measurement of intracellular calcium for high-throughput screening. The measurement of fluorescent is associated with calcium release upon activation of the Gq-coupled receptors.
Fluorometric Imaging Plate Reader system was used to allow for rapid, kinetic measurements of intracellular fluorescence in 96 well microplates (or 384 well microplates). Simultaneous measurements of fluorescence in all wells can be made by FLIPR or FDSS6000™ every second with high sensitivity and precision. These systems are ideal for measuring cell-based functional assays such as monitoring the intracellular calcium fluxes that occur within seconds after activation of the Gq coupled receptor.
Briefly, the cells are seeded into 96 well at 5.5×10^4 cells/well with complete culture media (Dulbecco's Modified Eagle Medium with 10% fetal bovine serum, 2 mM L-glutamine, 1 mM sodium pyruvate and 0.5 mg/mL G418, pH 7.4) for the assay next day. On the day of assay, the media is removed and the cells are incubated with 100 μl of loading buffer (4 μM Fluo-4-AM in complete culture media containing 2.5 mM Probenicid, 0.5 mg/ml and 0.2% bovine serum albumin) in 5% CO2 incubator at 37° C. for 1 hr. The loading buffer is removed, and the cells are washed with wash buffer (Hank's Balanced Salt Solution containing 2.5 mM Probenicid, 20 mM HEPES, 0.5 mg/mL and 0.2% bovine serum albumin, pH 7.4). One hundred fifty μl of wash buffer containing various concentrations of test compound is added to the cells, and the cells are incubated in 5% CO2 incubator at 37° C. for 30 min. Fifty μl of wash buffer containing various concentration of MCH are added to each well, and transient changes in [Ca^2+]i evoked by MCH are monitored using the FLIPR or FDSS in 96 well plates at Ex. 488 nm and Em. 530 nm for 290 second. When antagonist activity of compound is tested, 50 nM of MCH is used.
Use of FLIPR™ and FDSS6000™ can be accomplished by following manufacturer's instruction (Molecular Device Corporation and HAMAMATSU Photonics K.K.).
In the case of `Cc1cc(N[C@H]2CC[C@@H](NC(=O)c3ccc(F)c(Cl)c3)CC2)nc(N(C)C)n1` [Example 45, 3-Chloro-N-(cis-4-{([2-(dimethylamino)-6-methylpyrimidin-4-yl]amino}cyclohexyl)-4-fluorobenzamide hydrochloride], the IC50 fell in the range of 50 to 200 nM.
Consider `Cc1nc(Cl)cc(N[C@H]2CC[C@@H](NC(=O)c3cc(F)c(F)c(F)c3)CC2)n1` [Example 172, N-{cis-4-[(6-Chloro-2-methylpyrimidin-4-yl)amino]cyclohexyl}-3,4,5-trifluorobenzamide], for which the IC50 is > 200 nM.
`Cc1nc(N[C@H]2CC[C@@H](NC(=O)c3ccc(C(F)(F)F)c(F)c3)CC2)cc(N(C)C)n1` [Example 15, N-(cis-4-{[6-(Dimethylamino)-2-methylpyrimidin-4-yl]amino}cyclohexyl)-3-fluoro-4-(trifluoromethyl)benzamide hydrochloride]: the IC50 is > 200 nM.

Another assay concerns the target T1, MCH receptor. The assay can be described thus: Receptor binding assay with Radiolabelled MCH Ligand. The conditions noted are these: class by percent of control at 10^-7 M or IC50. Also on record: expressed in transfected cells; host or cells: 293 cells (human kidney, ATCC), transient transfection; crude membranes. The method, boiled down:
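Membranes from 293 cells transiently transfected with human MCH receptor competed test compounds against a radiolabelled MCH ligand in Tris-HCl pH 7.4 with MgCl2 and EDTA for 60–120 min at room temperature. Filtration and scintillation counting followed, with cold MCH defining nonspecific binding. IC50 came from logit-log plots of %B/B0, and Ki from the Cheng-Prusoff equation.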
As to `Cc1ccc(CN[C@H]2CC[C@@H](Nc3cc(N(C)C)nc(C)n3)CC2)cc1` [compound 387], the class is 3 (Class 3: The value of percent of control at 10^−7 M was more than 60% or the value of IC50 was more than 200 nM.).
Take `Cc1nc(N[C@H]2CC[C@@H](NCc3ccc(-c4ccccc4)cc3)CC2)cc(N(C)C)n1` [compound 355]: the class is on record as 3 (Class 3: The value of percent of control at 10^−7 M was more than 60% or the value of IC50 was more than 200 nM.).
With `Cc1nc(N[C@H]2CC[C@@H](NC(=O)Cc3sc(-c4ccccc4)nc3-c3ccc(Cl)cc3)CC2)cc(N(C)C)n1` [compound 335], the class was 3 (Class 3: The value of percent of control at 10^−7 M was more than 60% or the value of IC50 was more than 200 nM.).
For the compound `Cc1nc(N[C@H]2CC[C@@H](NC(=O)CCCCCCCCCCc3ccccc3)CC2)cc(N(C)C)n1` [compound 301], the class was 3 (Class 3: The value of percent of control at 10^−7 M was more than 60% or the value of IC50 was more than 200 nM.).
For the compound `Cc1nc(N[C@H]2CC[C@@H](NC(=O)c3ccc(I)o3)CC2)cc(N(C)C)n1` [compound 285, N-(cis-4-{[6-(dimethylamino)-2-methylpyrimidin-4-yl]amino}cyclohexyl)-5-iodo-2-furamide], the class is 3 (Class 3: The value of percent of control at 10^−7 M was more than 60% or the value of IC50 was more than 200 nM.).
Consider `Cc1nc(N[C@H]2CC[C@@H](NC(=O)CCCc3ccccc3)CC2)cc(N(C)C)n1` [compound 337], for which the class was 3 (Class 3: The value of percent of control at 10^−7 M was more than 60% or the value of IC50 was more than 200 nM.).
`Cc1nc(N[C@H]2CC[C@@H](NCCCc3ccccc3)CC2)cc(N(C)C)n1` [compound 403]: the class is reported as 3 (Class 3: The value of percent of control at 10^−7 M was more than 60% or the value of IC50 was more than 200 nM.).
For the compound `Cc1nc(N[C@H]2CC[C@@H](NCc3cccs3)CC2)cc(N(C)C)n1` [compound 388], the class is listed as 3 (Class 3: The value of percent of control at 10^−7 M was more than 60% or the value of IC50 was more than 200 nM.).
Take `Cc1nc(N[C@H]2CC[C@@H](NC(=O)c3ccco3)CC2)cc(N(C)C)n1` [compound 222]: the class is 3 (Class 3: The value of percent of control at 10^−7 M was more than 60% or the value of IC50 was more than 200 nM.).
Regarding `Cc1nc(N[C@H]2CC[C@@H](NCC3CCCC3)CC2)cc(N(C)C)n1` [compound 398], the class is 3 (Class 3: The value of percent of control at 10^−7 M was more than 60% or the value of IC50 was more than 200 nM.).
Still for that read-out and setting: for `Cc1nc(N[C@H]2CC[C@@H](NC(=O)C3c4ccccc4Oc4ccccc43)CC2)cc(N(C)C)n1` [compound 327, N-(cis-4-{[6-(dimethylamino)-2-methylpyrimidin-4-yl]amino}cyclohexyl)-9H-xanthene-9-carboxamide] the value was 3 (Class 3: The value of percent of control at 10^−7 M was more than 60% or the value of IC50 was more than 200 nM.).
`Cc1nc(N[C@H]2CC[C@@H](NC(=O)N3CCOCC3)CC2)cc(N(C)C)n1` [compound 225]: the class is recorded as 3 (Class 3: The value of percent of control at 10^−7 M was more than 60% or the value of IC50 was more than 200 nM.).
Regarding `Cc1nc(N[C@H]2CC[C@@H](NC(=O)Oc3ccccc3)CC2)cc(N(C)C)n1` [compound 464, phenyl (cis-4-{[6-(dimethylamino)-2-methylpyrimidin-4-yl]amino}cyclohexyl)carbamate], the class was 3 (Class 3: The value of percent of control at 10^−7 M was more than 60% or the value of IC50 was more than 200 nM.).
On to `Cc1nc(N[C@H]2CC[C@@H](NC(=O)C3CCCC3)CC2)cc(N(C)C)n1` [compound 253, N-(cis-4-{[6-(dimethylamino)-2-methylpyrimidin-4-yl]amino}cyclohexyl)cyclopentanecarboxamide], for which the class is listed as 3 (Class 3: The value of percent of control at 10^−7 M was more than 60% or the value of IC50 was more than 200 nM.).
As for `Cc1nc(N[C@H]2CC[C@@H](NC(=O)c3cc4ccccc4s3)CC2)cc(N(C)C)n1` [compound 203], the class is 3 (Class 3: The value of percent of control at 10^−7 M was more than 60% or the value of IC50 was more than 200 nM.).
On to `Cc1nc(N[C@H]2CC[C@@H](NC(=O)NCc3ccccc3Cl)CC2)cc(N(C)C)n1` [compound 412], for which the class is 3 (Class 3: The value of percent of control at 10^−7 M was more than 60% or the value of IC50 was more than 200 nM.).
With `Cc1cc(C)c(NC(=S)N[C@H]2CC[C@@H](Nc3cc(N(C)C)nc(C)n3)CC2)c(C)c1` [compound 437, N-(cis-4-{[6-(dimethylamino)-2-methylpyrimidin-4-yl]amino}cyclohexyl)-N′-mesitylthiourea], the class is 2 (Class 2: The value of percent of control at 10^−7 M was from 40% to 60% or the value of IC50 was from 50 nM to 200 nM.).
For `CCOc1ccc(C(=O)N[C@H]2CC[C@@H](Nc3cc(N(C)C)nc(C)n3)CC2)cc1` [compound 220], the class is recorded as 3 (Class 3: The value of percent of control at 10^−7 M was more than 60% or the value of IC50 was more than 200 nM.).
In the case of `Cc1nc(N[C@H]2CC[C@@H](NC(=O)C(C)c3ccc(C(=O)c4cccs4)cc3)CC2)cc(N(C)C)n1` (relative stereo) [compound 312], the class is given as 3 (Class 3: The value of percent of control at 10^−7 M was more than 60% or the value of IC50 was more than 200 nM.).
Regarding `CSc1ncccc1C(=O)N[C@H]1CC[C@@H](Nc2cc(N(C)C)nc(C)n2)CC1` [compound 226], the class was 3 (Class 3: The value of percent of control at 10^−7 M was more than 60% or the value of IC50 was more than 200 nM.).
The same measure, in the same setting: for `Cc1nc(N[C@H]2CC[C@@H](NS(=O)(=O)c3cccc(OC(F)(F)F)c3)CC2)cc(N(C)C)n1` [compound 492] the value was 3 (Class 3: The value of percent of control at 10^−7 M was more than 60% or the value of IC50 was more than 200 nM.); for `Cc1nc(N[C@H]2CC[C@@H](NCCc3ccc(F)cc3)CC2)cc(N(C)C)n1` [compound 395], 3 (Class 3: The value of percent of control at 10^−7 M was more than 60% or the value of IC50 was more than 200 nM.); for `Cc1nc(N[C@H]2CC[C@@H](NC(=O)c3cc(C(C)(C)C)nn3Cc3ccccc3)CC2)cc(N(C)C)n1` [compound 267], 3 (Class 3: The value of percent of control at 10^−7 M was more than 60% or the value of IC50 was more than 200 nM.).
On to `Cc1nc(N[C@H]2CC[C@@H](NC(=O)c3ccc(SC(F)(F)F)cc3)CC2)cc(N(C)C)n1` [compound 261], for which the class is reported as 3 (Class 3: The value of percent of control at 10^−7 M was more than 60% or the value of IC50 was more than 200 nM.).
